Measured values published in patent publication US20260159520A1, “HETEROBIFUNCTIONAL COMPOUNDS AND METHODS OF TREATING DISEASE” (Halda Therapeutics OpCo, Inc., priority 2022, published 2026).

Experiments:
[1] = target: T1, CDK9 (Homo sapiens, UniProt P50750); assay: KdELECT binding assay, CDK9; conditions: CDK9, Table 7
T1 construct: made in house; host or cells: E. coli BL21-derived host (T7 phage) or HEK-293 ('BEK-293' [sic])
Procedure: Compounds were tested using a KdELECT. Kinase-tagged T7 phage strains were prepared in an E. coli host derived from the BL21 strain. E. coli were grown to log-phase and infected with T7 phage and incubated with shaking at 32° C. until lysis. The lysates were centrifuged and filtered to remove cell debris. The remaining kinases were produced in BEK-293 cells and subsequently tagged with DNA for qPCR detection. Streptavidin-coated magnetic beads were treated with biotinylated small molecule ligands for 30 minutes at room temperature to generate affinity resins for kinase assays. The liganded beads were blocked with excess biotin and washed with blocking buffer (SeaBlock (Pierce), 1% BSA, 0.05% Tween 20, 1 mM DTT) to remove unbound ligand and to reduce non-specific binding. Binding reactions were assembled by combining kinases, liganded affinity beads, and test compounds in 1× binding buffer (20% SeaBlock, 0.17×PBS, 0.05% Tween 20, 6 mM DTT). Test compounds were prepared as 111× stocks in 100% DMSO. Kd values were determined using an 11-point 3-fold compound dilution series with three DMSO control points. All compounds for Kd measurements are distributed by acoustic transfer (non-contact dispensing) in 100% DMSO. The compounds were then diluted directly into the assays such that the final concentration of DMSO was 0.9%. All reactions performed in polypropylene 384-well plate. Each was a final volume of 0.02 mL. The assay plates were incubated at room temperature with shaking for 1 hour and the affinity beads were washed with wash buffer (lx PBS, 0.05% Tween 20). The beads were then re-suspended in elution buffer (lx PBS, 0.05% Tween 20, 0.5 μM nonbiotinylated affinity ligand) and incubated at room temperature with shaking for 30 minutes. The kinase concentration in the eluates was measured by qPCR.

[2] = test system: T-Rex 293 cell line SC3 cells having increased expression of androgen receptor protein; assay: Cellular growth inhibition, T-Rex 293 SC3 cells with doxycycline (increased androgen receptor expression); type: cell-based; conditions: with 10 ng/mL doxycycline (increased androgen receptor), 72 hours, CellTiter-Glo 2.0
Procedure: (§1) The following types of cells were prepared for this experiment: (i) a T-Rex 293 cell line having increased expression of androgen receptor protein due to exposure to doxycycline and (ii) a T-Rex 293 cell line lacking increased expression of androgen receptor protein. Ability of the test compounds to inhibit proliferation of the foregoing cell types was evaluated according to the procedures set forth below.
(§2) The doxycycline-inducible androgen receptor protein expressing cell line was established using the following protocol: T-Rex 293 cells were purchased from Invitrogen (Cat #R71007) and transfected using Lipofectamine 2000 with the wild-type androgen receptor protein sequence cloned into the pcDNA4/TO vector. Transfected cells were selected using 400 μg/mL Zeocin (Invitrogen Cat #R25001). Following selection, single clones were raised and maintained in Dulbecco's Modified Eagle Medium (DMEM) supplemented with 10% w/w Tetracycline-free fetal bovine serum (FBS) and 250 μg/mL Zeocin. Clones were analyzed for expression of androgen receptor protein in the presence and absence of 10 ng/mL doxycycline (Sigma Cat #D9891), and a single doxycycline-inducible clone (hereinafter “SC3”) was selected for use in downstream assays.
(§3) The SC3 cells were seeded on poly-D-lysine coated, black clear-bottom 384-well plates at 2500/well, in 25 μL Phenol Red Free Dulbecco's Modified Eagle Medium (DMEM) supplemented with 10% w/w charcoal-dextran treated fetal bovine serum (FBS) and 1% w/w pen-strep, with or without 10 ng/mL doxycycline. Pen-Strep is a commercially available mixture of penicillin G and streptomycin, which is used in mammalian cell culture media to prevent bacterial contamination. Phenol Red Free Dulbecco's Modified Eagle Medium (DMEM) supplemented with 10% w/w charcoal-dextran treated fetal bovine serum (FBS) and 1% w/w pen-strep, with or without 10 ng/mL doxycycline is herein referred to as Treatment Medium. Following seeding of cells in the plates, the plates were spun at 300×g for 30 seconds, then equilibrated to room temperature for 30 minutes, and then deposited in a humidified tissue culture incubator maintained at 37° C. with 5% CO2.
(§4) At 24 hours after seeding of the cells, dilutions of test compound were prepared in DMSO and dissolved in Treatment Medium, to achieve a final DMSO concentration of 0.5% w/w, thereby providing the Test Compound Solution. A 25 μL aliquot of the Test Compound Solution was added to cells in the well plates. An equal volume of a solution containing DMSO and Treatment Medium was used as a negative control. Following treatment of cells with Test Compound Solution or said equal volume of a solution containing DMSO and Treatment Medium, the plates were spun at 300×g for 30 seconds, and then left in an incubator for 72 hours.
(§5) At the end of the treatment duration, cell viability was quantified with CellTiter-Glo 2.0 reagent (Promega Cat #G9243). For this purpose, plates were equilibrated to room temperature for 30 minutes, and then 25 μL of CellTiter-Glo 2.0 reagent was added to cells in the plate wells. Plates were then agitated on a shaker for two minutes at 500 rpm and subsequently incubated at room temperature for 10 minutes. Following incubation, the plates were spun at 3000×g for 30 seconds, then sealed with an optical adhesive cover, and luminescence readings were measured with an EnVision Plate Reader.
(§6) Data was normalized using zero luminescence for baseline. A four-parameter non-linear regression curve fit was applied to dose-response data in GraphPad Prism data analysis software to determine the half-maximal growth inhibitory concentration (GI50) for each test compound.

[3] = test system: T-Rex 293 cell line SC3 cells lacking increased expression of androgen receptor protein; assay: Cellular growth inhibition, T-Rex 293 SC3 cells without doxycycline; type: cell-based; conditions: not exposed to doxycycline, 72 hours, CellTiter-Glo 2.0
Procedure: as §1, §2, §3, §4, §5, §6

[4] = test system: VCaP cells; assay: Cellular growth inhibition assay for VCaP cells; type: cell-based; conditions: Homo sapiens, 72 hours, CellTiter-Glo 2.0
Procedure: VCaP cells were purchased from American Type Cell Culture (ATCC Cat #CRL2876) and then seeded on poly-D-lysine coated, black clear-bottom 384-well plates at 5000/well in 25 μL Dulbecco's Modified Eagle Medium (DMEM) supplemented with 10% w/w Fetal bovine serum (FBS) and 1% w/w Pen-Strep. Pen-Strep is a commercially available mixture of penicillin G and streptomycin, which is used in mammalian cell culture media to prevent bacterial contamination. Dulbecco's Modified Eagle Medium (DMEM) supplemented with 10% w/w fetal bovine serum (FBS) and 1% w/w Pen-Strep is herein referred to as Treatment Medium. Following seeding of cells in the plates, the plates were spun at 300×g for 30 seconds, then equilibrated to room temperature for 30 minutes, and then deposited in a humidified tissue culture incubator maintained at 37° C. with 5% CO2.
as §4
as §5, with “Reader. Data was normalized using zero luminescence for baseline.” for “Reader.”
A four-parameter non-linear regression curve fit was applied to dose-response data in GraphPad Prism data analysis software to determine the half-maximal growth inhibitory concentration (GI50) for each test compound.

[5] = test system: T47D cells; assay: Cellular growth inhibition assay for T47D cells; type: cell-based; conditions: Homo sapiens, 72 hours, CellTiter-Glo 2.0
Procedure: T47D cells were purchased from American Type Cell Culture (ATCC Cat #HTB-133) and then seeded on poly-D-lysine coated, black clear-bottom 384-well plates at 3000/well in 25 μL Dulbecco's Modified Eagle Medium (DMEM) supplemented with 10% w/w Fetal bovine serum (FBS), 0.2 units/mL recombinant human insulin (Gibco Cat #12585014), and 1% w/w Pen-Strep. Pen-Strep is a commercially available mixture of penicillin G and streptomycin, which is used in mammalian cell culture media to prevent bacterial contamination. Dulbecco's Modified Eagle Medium (DMEM) supplemented with 10% w/w fetal bovine serum (FBS), 0.2 units/mL recombinant human insulin, and 1% w/w Pen-Strep is herein referred to as Treatment Medium. Following seeding of cells in the plates, the plates were spun at 300×g for 30 seconds, then equilibrated to room temperature for 30 minutes, and then deposited in a humidified tissue culture incubator maintained at 37° C. with 5% CO2.
as §4
as §5, with “Reader (Perkin Elmer).” for “Reader.”
as §6

T1 sequence (P50750 whole entry): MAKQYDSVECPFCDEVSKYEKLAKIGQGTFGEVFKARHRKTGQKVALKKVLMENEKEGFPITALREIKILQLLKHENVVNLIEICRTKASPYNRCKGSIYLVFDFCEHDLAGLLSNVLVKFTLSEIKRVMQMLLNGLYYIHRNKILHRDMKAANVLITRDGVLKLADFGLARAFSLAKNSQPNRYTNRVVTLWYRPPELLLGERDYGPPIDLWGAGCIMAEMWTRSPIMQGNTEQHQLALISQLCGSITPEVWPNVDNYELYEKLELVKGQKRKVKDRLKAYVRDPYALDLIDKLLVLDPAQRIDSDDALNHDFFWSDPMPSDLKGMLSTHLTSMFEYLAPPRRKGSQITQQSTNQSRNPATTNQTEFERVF

| Compound | Kd [1] | GI50 [4] | GI50 [5] | GI50 [2] | GI50 [3] |
| --- | --- | --- | --- | --- | --- |
| CCc1cnn2c(NCc3ccc(OCCOCCN4CC5CN(c6ncc(C(=O)N[C@H]7C(C)(C)[C@H](Oc8ccc(C#N)c(Cl)c8)C7(C)C)cn6)CC5C4)nc3)cc(N3CCCC[C@H]3CCO)nc12 (some centres unmarked) [Compound I-62] | 50 to 500 nM | 100 to 1000 nM |  | < 100 nM | 100 to 1000 nM |
| CCc1cnn2c(NCc3ccc(OCCOC4CCN(C5CN(c6ncc(C(=O)N[C@H]7C(C)(C)[C@H](Oc8ccc(C#N)c(Cl)c8)C7(C)C)cn6)C5)CC4)nc3)cc(N3CCCC[C@H]3CCO)nc12 [Compound I-63] | < 50 nM | < 100 nM |  | < 100 nM | < 100 nM |
| CN(CCCN1CCN(CCCNS(=O)(=O)c2ccc(Nc3ncc(Br)c(Nc4cccc(F)c4C(N)=O)n3)cc2)CC1)c1ncc(C(=O)N[C@H]2C(C)(C)[C@H](Oc3ccc(C#N)c(Cl)c3)C2(C)C)cn1 [Compound I-22, 2-((3-(4-(3-((4-((5-bromo-4-((2-carbamoyl-3-fluorophenyl)amino)pyrimidin-2-yl)amino)phenyl)sulfonamido)propyl)piperazin-1-yl)propyl) (methyl)amino)-N-((1r,3r)-3-(3-chloro-4-cyanophenoxy)-2,2,4,4-tetramethylcyclobutyl) pyrimidine-5-carboxamide] | 500 to 2500 nM |  | < 500 nM | 1000 to 3500 nM | > 3500 nM |
| CC1(C)[C@H](NC(=O)c2cnc(N3CCC(OCCOCCOCCOCCOCCNS(=O)(=O)c4ccc(Nc5ncc(Br)c(Nc6cccc(F)c6C(N)=O)n5)cc4)CC3)nc2)C(C)(C)[C@H]1Oc1ccc(C#N)c(Cl)c1 [Compound I-15] | > 2500 nM |  | 500 to 1500 nM | > 3500 nM | > 3500 nM |
| COc1cc(F)ccc1-c1ccnc2[nH]c(C3CCN(CCOCCOCCOC4CCN(c5ncc(C(=O)N[C@H]6C(C)(C)[C@H](Oc7ccc(C#N)c(Cl)c7)C6(C)C)cn5)CC4)CC3)cc12 [Compound I-67, N-[3-(3-chloro-4-cyano-phenoxy)-2,2,4,4-tetramethyl-cyclobutyl]-2-[4-[2-[2-[2-[4-[4-(4-fluoro-2-methoxy-phenyl)-1H-pyrrolo[2,3-b]pyridin-2-yl]-1-piperidyl]ethoxy]ethoxy]ethoxy]-1-piperidyl]pyrimidine-5-carboxamide] |  | > 3500 nM | 1500 to 3000 nM | 100 to 1000 nM | 1000 to 3500 nM |
| CCc1cnn2c(NCc3ccc(N4CC(N5CCC(N6CCN(c7ncc(C(=O)N[C@H]8C(C)(C)[C@H](Oc9ccc(C#N)c(Cl)c9)C8(C)C)cn7)CC6)CC5)C4)nc3)cc(N3CCCC[C@H]3CCO)nc12 [Compound I-64] |  | < 100 nM | < 500 nM | < 100 nM | < 100 nM |
| CCc1cnn2c(NCc3ccc(N4CC(N5CCN(C6CCN(c7ncc(C(=O)N[C@H]8C(C)(C)[C@H](Oc9ccc(C#N)c(Cl)c9)C8(C)C)cn7)CC6)CC5)C4)nc3)cc(N3CCCC[C@H]3CCO)nc12 [Compound I-65] |  | < 100 nM | < 500 nM | < 100 nM | < 100 nM |

Second part, led by results:

| Kd [1] | GI50 [4] | GI50 [5] | Compound | GI50 [2] | GI50 [3] |
| --- | --- | --- | --- | --- | --- |
|  | 100 to 1000 nM | 500 to 1500 nM | CCc1cnn2c(NCc3ccc(N4CCC(OCCC5CCN(c6ncc(C(=O)N[C@H]7C(C)(C)[C@H](Oc8ccc(C#N)c(Cl)c8)C7(C)C)cn6)CC5)C4)nc3)cc(N3CCCC[C@H]3CCO)nc12 (some centres unmarked) [Compound I-80] | < 100 nM | > 3500 nM |
|  | > 3500 nM | > 3000 nM | CC1(C)[C@H](NC(=O)c2cnc(N3CCC(OCCOCCOCCN4C/C=C/CCOc5cccc(c5)-c5ccnc(n5)Nc5cccc(c5)C4)CC3)nc2)C(C)(C)[C@H]1Oc1ccc(C#N)c(Cl)c1 [Compound I-89] | 100 to 1000 nM | > 3500 nM |
|  | > 3500 nM | 500 to 1500 nM | CCc1cnn2c(NCc3ccc(OCCN4CCN(CC5CCN(c6ncc(C(=O)N[C@H]7C(C)(C)[C@H](Oc8ccc(C#N)c(Cl)c8)C7(C)C)cn6)CC5)CC4)nc3)cc(N3CCCC(F)(F)C3)nc12 [Compound I-91] | 100 to 1000 nM | > 3500 nM |
|  | 100 to 1000 nM | 500 to 1500 nM | CC(C)n1cc(-c2ccnc3[nH]c(C4CCN(CCOCCOCCOC5CCN(c6ncc(C(=O)N[C@H]7C(C)(C)[C@H](Oc8ccc(C#N)c(Cl)c8)C7(C)C)cn6)CC5)CC4)cc23)ccc1=O [Compound I-77] | 100 to 1000 nM | 100 to 1000 nM |
